Measured values as given in patent US20240174622A1, “COMPOUND AND RADIOACTIVE LABELING COMPOUND” (NIHON MEDI-PHYSICS CO., LTD., priority 2021, published 2024).

Legend:
[1] = tested on: LNCaP tumor-transplanted mouse; test: Internal radioactivity distribution using LNCaP tumor-transplanted mouse; assay type: in vivo
Experimental: (§1) The animal test was performed in compliance with the guidelines of Kyoto University Animal Experiment Committee. Male CB17/IcrJcl-Prkdc^scid mice were purchased from CLEA Japan, Inc. The animals were kept under 12 h/12 h, day/night cycle conditions and fed ad libitum with food and water. LNCaP cells (1.0×10^7 cells/mouse) or PC-3 cells (1.0×10^7 cells/mouse) were suspended in a mixture of PBS and Matrigel manufactured by Corning Life Sciences (1:1, 150 μL) and the suspension was subcutaneously transplanted to the right shoulder of mice under isoflurane anesthesia. Thereafter, the mice were kept for 40 to 60 days.
LNCaP or PC-3 tumor-implanted mice were administered saline solutions (185 kBq, 100 μL) of [^111In]In-PSMA-DA1 or [^111In]In-PSMA-DB from the tail vein (n=3 each). Mice were euthanized 1, 4, 24, 48, 96, and 192 hours after administration. Thereafter, blood and each organ were recovered, and the mass and radioactivity of the organs were measured.
The percentage (% ID) of the radioactivity amount to the administered radioactivity amount (injected dose) is shown as the value (% ID/g) divided by the blood mass or the organ mass (g).
LNCaP tumor-implanted mice prepared by the same method as in Example 1-1 were administered a saline solution (241 kBq/100 μL) of [^111In]In-PtDA from the tail vein (n=3). Mice were euthanized 1, 24, and 48 hours after administration. Thereafter, blood and each organ were recovered, and the mass and radioactivity of the organs were measured.
LNCaP tumor-implanted mice prepared by the same method as in Example 1-1 were administered a saline solution (259 kBq/100 μL each) of each of the radiolabeled compounds in Examples 3-1 to 3-3 or Comparative Examples 2-1 to 2-2 from the tail vein (n=2 to 3). Mice were euthanized 1, 4, 24, 48, 96, and 192 hours after administration. Thereafter, blood and each organ were recovered, and the mass and radioactivity of the organs were measured.
as §1, with “LNCaP cells (4.3×10^6 cells/mouse) or” for “LNCaP cells (1.0×10^7 cells/mouse) or”, “PC-3 cells (3.3×10^6 cells/mouse) were” for “PC-3 cells (1.0×10^7 cells/mouse) were”, “shoulder of CB17/IcrJcl-Prkdc^scid mice under” for “shoulder of mice under”
Mice were euthanized 1, 4, 24, 48, 96, and 192 hours after administration. Thereafter, blood and each organ were recovered, and the mass and radioactivity of the organs were measured.
The results are shown in Table 12 (Mean value±standard deviation, n=3).

[2] = target: human serum albumin (HSA) (Homo sapiens, UniProt P02768); test: Evaluation of binding to albumin (HSA solution, PBS control); conditions: left to stand in HSA solution (45 mg/mL)
Experimental: Thereafter, the reaction liquids were added to a spin column (Sephadex G-100; manufactured by Cytiva), and centrifuged at 1500×g at 4° C. for 2 minutes. After separation, the radioactivity for each of the column and the eluate was measured with a gamma counter.
When a compound to be evaluated binds to albumin to form a composite, the compound passes through the column because of the increased molecular size.
As in Examples described above, PBS and human albumin were used to evaluate binding to albumin.
Thereafter, the reaction liquid was added to a spin column (Sephadex G-50; manufactured by Cytiva), and centrifuged at 1500×g at 4° C. for 2 minutes. After separation, the radioactivity of the column and the eluate was measured with a gamma counter.

human serum albumin (HSA), sequence (P02768 25-609): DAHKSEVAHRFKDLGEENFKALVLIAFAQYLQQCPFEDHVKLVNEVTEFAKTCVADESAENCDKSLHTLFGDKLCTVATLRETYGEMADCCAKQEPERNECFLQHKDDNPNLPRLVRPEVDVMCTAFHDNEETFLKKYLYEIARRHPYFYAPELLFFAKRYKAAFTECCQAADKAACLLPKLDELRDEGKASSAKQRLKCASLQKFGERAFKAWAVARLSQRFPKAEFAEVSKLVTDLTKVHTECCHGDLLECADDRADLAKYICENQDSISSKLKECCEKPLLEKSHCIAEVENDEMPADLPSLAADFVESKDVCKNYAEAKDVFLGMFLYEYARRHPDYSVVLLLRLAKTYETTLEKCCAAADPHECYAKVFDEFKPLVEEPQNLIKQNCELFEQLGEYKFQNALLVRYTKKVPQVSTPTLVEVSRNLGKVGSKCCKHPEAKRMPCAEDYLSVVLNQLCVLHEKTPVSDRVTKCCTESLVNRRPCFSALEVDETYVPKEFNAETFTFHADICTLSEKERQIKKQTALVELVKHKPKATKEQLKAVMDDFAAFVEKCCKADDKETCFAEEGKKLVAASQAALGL

- Blood ([1]; 1 h after administration): 27.2 ± 2.92 % ID/g
- Brain ([1]; 1 h after administration): 0.40 ± 0.05 % ID/g
- Heart ([1]; 1 h after administration): 6.53 ± 0.66 % ID/g
- Intestine ([1]; 1 h after administration): 2.60 ± 0.48 % ID/g
- Kidney ([1]; 1 h after administration): 57.1 ± 17.4 % ID/g
- LNCaP Tumor ([1]; 1 h after administration): 7.79 ± 1.11 % ID/g
- Liver ([1]; 1 h after administration): 4.32 ± 0.40 % ID/g
- Lung ([1]; 1 h after administration): 16.7 ± 1.41 % ID/g
- Muscle ([1]; 1 h after administration): 1.51 ± 0.23 % ID/g
- Pancreas ([1]; 1 h after administration): 2.59 ± 0.26 % ID/g
- Spleen ([1]; 1 h after administration): 8.56 ± 0.95 % ID/g
- Stomach (% ID) ([1]; 1 h after administration): 0.49 ± 0.04 % ID
- Blood ([1]; 4 h after administration): 19.3 ± 3.84 % ID/g
- Brain ([1]; 4 h after administration): 0.31 ± 0.07 % ID/g
- Heart ([1]; 4 h after administration): 5.98 ± 0.93 % ID/g
- Intestine ([1]; 4 h after administration): 3.23 ± 0.18 % ID/g
- Kidney ([1]; 4 h after administration): 100 ± 6.33 % ID/g
- LNCaP Tumor ([1]; 4 h after administration): 11.3 ± 2.39 % ID/g
- Liver ([1]; 4 h after administration): 3.36 ± 0.39 % ID/g
- Lung ([1]; 4 h after administration): 14.1 ± 2.06 % ID/g
- Muscle ([1]; 4 h after administration): 1.26 ± 0.18 % ID/g
- Pancreas ([1]; 4 h after administration): 2.17 ± 0.15 % ID/g
- Spleen ([1]; 4 h after administration): 7.42 ± 0.88 % ID/g
- Stomach (% ID) ([1]; 4 h after administration): 0.78 ± 0.28 % ID
- Blood ([1]; 24 h after administration): 7.20 ± 0.50 % ID/g
- Brain ([1]; 24 h after administration): 0.16 ± 0.01 % ID/g
- Heart ([1]; 24 h after administration): 2.50 ± 0.17 % ID/g
- Intestine ([1]; 24 h after administration): 1.23 ± 0.28 % ID/g
- Kidney ([1]; 24 h after administration): 26.4 ± 2.50 % ID/g
- LNCaP Tumor ([1]; 24 h after administration): 8.04 ± 0.38 % ID/g
- Liver ([1]; 24 h after administration): 1.73 ± 0.09 % ID/g
- Lung ([1]; 24 h after administration): 5.85 ± 0.39 % ID/g
- Muscle ([1]; 24 h after administration): 0.61 ± 0.04 % ID/g
- Pancreas ([1]; 24 h after administration): 1.24 ± 0.16 % ID/g
- Spleen ([1]; 24 h after administration): 2.87 ± 0.40 % ID/g
- Stomach (% ID) ([1]; 24 h after administration): 0.25 ± 0.08 % ID
- Blood ([1]; 48 h after administration): 3.88 ± 1.13 % ID/g
- Brain ([1]; 48 h after administration): 0.12 ± 0.02 % ID/g
- Heart ([1]; 48 h after administration): 1.37 ± 0.18 % ID/g
- Intestine ([1]; 48 h after administration): 0.62 ± 0.14 % ID/g
- Kidney ([1]; 48 h after administration): 17.3 ± 5.57 % ID/g
- LNCaP Tumor ([1]; 48 h after administration): 7.79 ± 2.72 % ID/g
- Liver ([1]; 48 h after administration): 1.42 ± 0.08 % ID/g
- Lung ([1]; 48 h after administration): 3.18 ± 0.68 % ID/g
- Muscle ([1]; 48 h after administration): 0.26 ± 0.05 % ID/g
- Pancreas ([1]; 48 h after administration): 0.60 ± 0.13 % ID/g
- Spleen ([1]; 48 h after administration): 1.76 ± 0.39 % ID/g
- Stomach (% ID) ([1]; 48 h after administration): 0.13 ± 0.04 % ID
- Blood ([1]; 96 h after administration): 0.63 ± 0.32 % ID/g
- Brain ([1]; 96 h after administration): 0.07 ± 0.02 % ID/g
- Heart ([1]; 96 h after administration): 0.43 ± 0.17 % ID/g
- Intestine ([1]; 96 h after administration): 0.29 ± 0.09 % ID/g
- Kidney ([1]; 96 h after administration): 4.33 ± 2.06 % ID/g
- LNCaP Tumor ([1]; 96 h after administration): 4.17 ± 0.80 % ID/g
- Liver ([1]; 96 h after administration): 0.70 ± 0.25 % ID/g
- Lung ([1]; 96 h after administration): 0.78 ± 0.29 % ID/g
- Muscle ([1]; 96 h after administration): 0.08 ± 0.03 % ID/g
- Pancreas ([1]; 96 h after administration): 0.22 ± 0.06 % ID/g
- Spleen ([1]; 96 h after administration): 0.88 ± 0.32 % ID/g
- Stomach (% ID) ([1]; 96 h after administration): 0.06 ± 0.03 % ID
- Blood ([1]; 192 h after administration): 0.03 ± 0.00 % ID/g
- Brain ([1]; 192 h after administration): 0.02 ± 0.01 % ID/g
- Heart ([1]; 192 h after administration): 0.12 ± 0.02 % ID/g
- Intestine ([1]; 192 h after administration): 0.05 ± 0.01 % ID/g
- Kidney ([1]; 192 h after administration): 0.27 ± 0.02 % ID/g
- LNCaP Tumor ([1]; 192 h after administration): 1.31 ± 0.49 % ID/g
- Liver ([1]; 192 h after administration): 0.35 ± 0.04 % ID/g
- Lung ([1]; 192 h after administration): 0.12 ± 0.04 % ID/g
- Muscle ([1]; 192 h after administration): 0.01 ± 0.02 % ID/g
- Pancreas ([1]; 192 h after administration): 0.07 ± 0.01 % ID/g
- Spleen ([1]; 192 h after administration): 0.31 ± 0.11 % ID/g
- Stomach (% ID) ([1]; 192 h after administration): 0.01 ± 0.00 % ID
- radioactivity in the eluate (in words) [2]: significantly higher
Structure (SMILES): O=C([O-])CN(Cc1cccc(C(=O)[O-])n1)C[C@H](Cc1ccc(NC(=O)[C@H](CCCCNC(=O)CCC(=O)NCCCC[C@H](NC(=O)N[C@@H](CCC(=O)O)C(=O)O)C(=O)O)NC(=O)COCCOCCOCC(=O)N[C@@H](CCCCNC(=O)CCCc2ccc(I)cc2)C(=O)O)cc1)N(CC(=O)[O-])Cc1cccc(C(=O)[O-])n1.[111In+3] [[^111In]In-Octapa-3]
